From US11357774B2, “Use of a quinoline sulfonyl compound for treatment of inflammation, inflammatory disorders, autoimmune disorders and malaria” (priority 2019, dated 2022)

How the values were obtained:
[1] = tested on: PBMC cells; test: Sulforhodamine B (SRB) assay, IC50 on PBMC; assay type: cell-based, human
Method: The sulforhodamine B (SRB) assay^21 was used to determine the drug concentration that half of the cell growth/viability is inhibited (IC50). Cells were cultured in 96-well plates, with 5,000 cells in 100 μL of culture medium per well. The rest of the protocol was the same as described previously^22,23.
Data shown in Table 1 are IC50 values of VR23 and other compounds, which were determined using sulforhodamine B (SRB) assays on immunologically relevant cells (THP-1, SW-982 and PBMC). […] Two well-known proteasome inhibitors, BTZ and CFZ, were included for comparison since VR23 is also a proteasome inhibitor, albeit targeting different subunits^2. The widely used anti-inflammatory DEX was included, also for comparison.
THP-1, SW982 and PBMC cells (5,000 cells/well) were treated with each compound for 48 hours. The IC50, the drug concentration reducing cell growth/viability by 50%, was determined by a dose-response four-parameter curve (generated with GraphPad Prism V. 4.02) formed by 10 two-fold dilutions (n=3).

[2] = tested on: mouse lung tissues with ALI caused by LPS; test: Histopathological analysis of lung tissues of mice with LPS-induced ALI; assay type: in vivo; settings: LPS 0.4 mg/kg, 24 hours, VR23 30 mg/kg, DEX 4 mg/kg
Method: Six to eight week old female BALB/c mice strain 028 (Charles River Laboratories, QC, Canada) were fed regularly with laboratory chow and water upon arrival at the Laurentian University Animal Care Facility (Sudbury, ON, Canada). To determine a useful dose of LPS, three mice per group were treated for 24 hours with the following three different conditions: (i) no LPS, (ii) 0.25 mg of LPS per kg of body weight, and (iii) 0.50 mg of LPS per kg of body weight. The different concentrations of LPS were administered intranasally to the three BALB/c mice per concentration. After the animals were sacrificed, the bronchoalveolar lavage fluid (BALF) of each mouse was collected and analyzed for LPS-induced inflammatory responses. […] Experimental design involving the use of VR23 was based on a previous acute lung injury (ALI) instillation by Wei and Huang^26. Briefly, mice were divided into 5 groups, with 3-5 mice per group: no lung injury (i.e., no treat), sham treated, LPS-only, LPS+DEX, and LPS+VR23. […] Bronchoalveolar lavage fluid was collected and the number of cells infiltrated into the bronchoalveolar fluid were counted (FIG. 2). […]
At 24-hour post-induction of lung injury with LPS, lung tissues were embedded in the paraffin block, followed by slicing them into 10 μm sections using a microtome. […] For microscopy, at least 10 fields were analyzed for each sample. […]

[3] = tested on: mouse organs / tumor; settings: cited from earlier work

With `O=[N+]([O-])c1ccc(S(=O)(=O)N2CCN(c3ccnc4cc(Cl)ccc34)CC2)c([N+](=O)[O-])c1` [VR23, 7-chloro-4-(4-(2,4-dinitrophenylsulfonyl)piperazin-1-yl)quinoline] the IC50 ([1]; 48 hours) was 3.14 ± 0.26 µM, the IC50 ([1]; Homo sapiens, 48 h) was 3 µM and the “alveolar inflammation caused by LPS (H & E histopathology)” value [2] was “largely prevented”. The anti-tumor activity ([3]; animal-based studies) was “strong anti-tumor activity”, the “toxicity to mouse organs” value ([3]; animal-based studies) was “without any notable toxic side effects to mouse organs” and the “toxic side effects of paclitaxel in combination” value ([3]; used in combination with paclitaxel (Tax)) was “reduces toxic side effects caused by paclitaxel”.
